{
  "source": "patent US20260167960A1",
  "about": "“METHODS AND COMPOSITIONS INCLUDING CONJUGATED DNAZYMES” (priority 2022, published 2026)",
  "tested_on": "K. pneumoniae biofilm on silicon-coated latex Foley catheter",
  "experiment": "Flow-cell catheter-associated biofilm, CFU assay",
  "assay_type": "cell-based",
  "details": "2-hour perfusion; 750 or 1000 mcg/mL meropenem; FIG. 6A",
  "description": "Catheters were then connected to a flow-cell system containing fresh 10% TSB, and fresh media was perfused through the catheter by a pump at 10 ml/hour at 37° C. After 24 hours, treatment solution was perfused into the catheter at 10 ml/hour at 37° C. for 2 hours. Bacteria were scraped from the catheter into 1 ml PBS, and decimal serial dilutions were performed. All dilutions were plated by drop-plating technique on LB agar plates. LB agar plates were incubated at 37° C., and CFU were counted the next morning.\nTo test the effect of conjugated DNAzymes on established, catheter-associated biofilms, K. pneumoniae were incubated in catheters for 2 hours in static conditions and then for 24 hours with fresh media flow, after which they were subject to a 2-hour perfusion with 750 or 1000 mcg/mL meropenem, alone or in combination with tocopherol-conjugated or cholesterol-conjugated DNAzymes. After the incubation, the tubing was cut open and bacteria were scraped from the inside of the tubing, after which the CFU were determined by replating and observing colony formation. […] When CFU formation was tested in plates containing a much lower concentration (10 mcg/mL) of meropenem, the prior treatment with conjugated DNAzymes+meropenem nearly completely abolished colony formation (FIG. 6B), showing that antibiotic resistance was largely, if not entirely, abrogated in the disrupted biofilms.",
  "data": [
    {"smiles": "C[C@@H](O)[C@H]1C(=O)N2C(C(=O)O)=C(S[C@@H]3CN[C@H](C(=O)N(C)C)C3)[C@H](C)[C@H]12", "note": "[meropenem]", "values": [
      {"measurement": "disruption of established catheter-associated biofilms (CFU)", "value": "not antibiotic alone, significantly disrupted the established biofilms"}
    ]}
  ]
}
